From publication PMC6321646, “Evaluation of the Novel Synthetic Tyrosinase Inhibitor (Z)-3-(3-bromo-4-hydroxybenzylidene)thiochroman-4-one (MHY1498) In Vitro and In Silico” (Molecules, 2018)

Molecular target: T1, mushroom tyrosinase (Agaricus bisporus, UniProt C7FF04)
T1 construct: gene PPO3
Experiment: dopachrome formation at […] nm, % inhibition at […]
Assay type: biochemical
Details: read-out: 50μM / Mean ± SD (%)

T1 sequence (C7FF04 2-392): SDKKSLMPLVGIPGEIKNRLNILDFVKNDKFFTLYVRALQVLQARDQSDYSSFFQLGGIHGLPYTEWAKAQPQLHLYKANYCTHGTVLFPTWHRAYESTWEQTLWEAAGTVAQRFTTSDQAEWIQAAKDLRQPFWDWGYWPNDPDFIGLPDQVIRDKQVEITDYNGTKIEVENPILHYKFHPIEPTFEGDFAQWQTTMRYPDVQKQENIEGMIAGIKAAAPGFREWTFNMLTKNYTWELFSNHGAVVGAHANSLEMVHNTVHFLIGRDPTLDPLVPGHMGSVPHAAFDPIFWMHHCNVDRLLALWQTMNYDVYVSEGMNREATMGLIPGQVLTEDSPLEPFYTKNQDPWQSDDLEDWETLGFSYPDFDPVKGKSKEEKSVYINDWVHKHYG

inhibition at 50 µM [%] | Structure (SMILES)
81.6 ± 1 | O=C1/C(=C/c2ccc(O)cc2)CSc2ccccc21 [a]
91.5 ± 6.2 | COc1ccc(/C=C2\CSc3ccccc3C2=O)cc1O [d]
